For assay [1], the target named is T1, TIE2 intracellular domain/c-fms extracellular domain (TIE2/c-fms) chimeric protein expressing mouse 3T3 cells (Homo sapiens, UniProt Q02763).
T1 construct: a TIE2 intracellular domain/c-fms extracellular domain (TIE2/c-fms) chimeric protein; expressed in transfected cells; host or cells: mouse 3T3 cells
Put plainly: TIE-2 autophosphorylation assay (TIE2-C), ELISA. It is filed as cell-based. The settings on record: TIE2/c-fms 3T3 cells, MCSF activation. Put shortly:
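Mouse 3T3 cells expressing TIE2 intracellular/c-fms extracellular chimera treated with compound for 1 hr in serum-free DMEM (0.1% DMSO), then stimulated with MCSF. Lysates captured on anti-c-fms plates overnight at 4 °C; phosphotyrosine detected by biotin-PT66/HRP-streptavidin, OD450. IC50 by nonlinear regression, reported as pIC50.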
In general terms: An ELISA detects its analyte on a solid surface through an enzyme-linked reagent.

In assay [2] the test system is Human umbilical cord endothelial cells (HUVEC). The assay can be described thus: VEGF-driven cellular proliferation assay: BrdU incorporation assay (VEGF-C). The format is cell-based. Also on record: key to VEGF-C: + = pIC50 of 5.0–6.0; ++ = pIC50 of 6.0–7.0; +++ = pIC50 of > 7.0; − = a negative or inconclusive result. The settings on record: for IC50: Homo sapiens. Put shortly: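 HUVEC (≤6 passages) were plated at 5000 cells/well and exposed to compound 30 min in serum-free M199 containing 0.6% DMSO. Medium with 20 ng/ml VEGF was then added for 24 h, followed by a 24 h pulse with 10 μM BrdU and ELISA read at 450 nm. IC50 from nonlinear regression of percent inhibition was expressed as pIC50.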
Background: Uptake of a labelled nucleoside into DNA is a usual measure of proliferation.

Assay [3] deals with T2, GST-VEGFR2 (Homo sapiens, UniProt P35968).
T2 construct: GST-VEGFR2, baculovirus expressed recombinant constructs of the intracellular domains of human TIE2 tagged by GST; made in house
Put plainly: VEGF-R2 enzyme assay (VEGF-E), LANCE method. It is filed as biochemical. As to conditions: 75 μM ATP.

The target of assay [4] is T3, GST-TIE2 (intracellular domains of human TIE2) (Homo sapiens, UniProt Q02763).
T3 construct: made in house
The assay can be described thus: TIE-2 enzyme assay (TIE2-E), LANCE method. It is filed as biochemical. The settings on record: 80 uM ATP. Put shortly: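 Baculovirus GST-TIE2 (human intracellular domain, aa 762–1104) preactivated 30 min at RT with 2 mM ATP, then reacted 30 min at RT with 1 μM D1-15 peptide, 80 uM ATP, 10 mM MgCl2, pH 7.4, 2.4% DMSO. EDTA-stopped; LANCE Eu-anti-pTyr/streptavidin-APC read-out. IC50 by nonlinear regression, reported as pIC50.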

Some results are limits rather than exact numbers.

T2 sequence (P35968 786-1356 limits assumed): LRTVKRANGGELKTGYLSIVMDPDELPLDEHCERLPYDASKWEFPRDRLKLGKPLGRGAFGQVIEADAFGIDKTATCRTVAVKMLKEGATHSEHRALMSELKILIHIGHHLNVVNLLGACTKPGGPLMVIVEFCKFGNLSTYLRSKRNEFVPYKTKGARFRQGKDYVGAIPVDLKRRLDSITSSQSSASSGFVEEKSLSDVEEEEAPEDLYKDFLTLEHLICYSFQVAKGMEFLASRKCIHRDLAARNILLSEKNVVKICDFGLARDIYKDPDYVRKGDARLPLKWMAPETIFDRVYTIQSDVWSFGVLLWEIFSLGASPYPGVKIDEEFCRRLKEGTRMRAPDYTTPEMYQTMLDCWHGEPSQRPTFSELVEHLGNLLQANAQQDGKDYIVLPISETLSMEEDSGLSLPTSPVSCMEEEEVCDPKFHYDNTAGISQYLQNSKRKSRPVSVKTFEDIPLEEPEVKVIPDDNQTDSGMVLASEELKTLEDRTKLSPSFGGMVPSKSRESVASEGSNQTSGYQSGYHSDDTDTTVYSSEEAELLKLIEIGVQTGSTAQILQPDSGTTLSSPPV
T1 sequence (Q02763 770-1124 limits assumed, change not shown): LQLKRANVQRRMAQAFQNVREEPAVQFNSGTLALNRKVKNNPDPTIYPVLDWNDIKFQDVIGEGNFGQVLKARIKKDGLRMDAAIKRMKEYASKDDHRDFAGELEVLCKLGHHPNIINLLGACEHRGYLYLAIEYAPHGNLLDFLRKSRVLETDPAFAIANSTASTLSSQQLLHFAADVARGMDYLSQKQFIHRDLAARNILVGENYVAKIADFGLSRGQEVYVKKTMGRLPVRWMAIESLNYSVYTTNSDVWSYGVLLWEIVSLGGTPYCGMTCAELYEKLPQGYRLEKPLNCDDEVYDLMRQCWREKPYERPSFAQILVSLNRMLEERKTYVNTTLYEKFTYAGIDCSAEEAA
T3 sequence (Q02763 762-1104): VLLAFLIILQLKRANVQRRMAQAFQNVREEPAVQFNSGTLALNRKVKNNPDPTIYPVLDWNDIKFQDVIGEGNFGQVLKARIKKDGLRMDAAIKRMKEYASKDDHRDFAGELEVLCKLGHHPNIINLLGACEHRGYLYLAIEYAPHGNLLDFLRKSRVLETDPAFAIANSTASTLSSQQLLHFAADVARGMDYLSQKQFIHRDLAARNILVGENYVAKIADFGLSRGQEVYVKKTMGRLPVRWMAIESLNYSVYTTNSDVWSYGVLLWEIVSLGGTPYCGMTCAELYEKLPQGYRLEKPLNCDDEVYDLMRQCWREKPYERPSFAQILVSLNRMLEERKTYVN

Consider `O=C(Nc1ccc(Oc2ccc3[nH]c(NC(=O)c4ccc5[nH]cnc5c4)nc3c2)cc1)Nc1cc(C(F)(F)F)ccc1F` [Example 89, N-(5-(4-((2-Fluoro-5-(trifluoromethyl)phenyl)aminocarbonylamino)phenoxy)-1H-benzimidazol-2-yl)-5-benzimidazolecarboxamide], for which the IC50 (commonly the point on the concentration scale where inhibition reaches its midpoint) is less than 100 nM in assay [1], 100 to 1000 nM in assay [2], less than 100 nM in assay [3] and less than 100 nM in assay [4].
`CN1CCN(Cc2ccc(C(=O)Nc3nc4cc(Oc5ccc(NC(=O)Nc6cc(C(F)(F)F)ccc6F)cc5)ccc4[nH]3)cc2)CC1` [Example 87, N-(5-(4-((2-Fluoro-5-(trifluoromethyl)phenyl)aminocarbonylamino)phenoxy)-1H-benzimidazol-2-yl)-4-(4-methyl-1-piperazinomethyl)benzamide]: the half-inhibitory concentration (IC50) in assay [1] was less than 100 nM; in assay [2], 100 to 1000 nM; in assay [3], less than 100 nM; in assay [4] it was less than 100 nM.
In the case of `O=C(Nc1ccc(Oc2ccc3[nH]c(NC(=O)C4CCCC4)nc3c2)cc1)Nc1cc(C(F)(F)F)ccc1F` [Example 26, N-(5-(4-((2-Fluoro-5-(trifluoromethyl)phenyl)aminocarbonylamino)phenoxy)-1H-benzimidazol-2-yl)cyclopentamide], the half-inhibitory concentration (IC50) in assay [1] is 100 to 1000 nM; in assay [2], 100 to 1000 nM; in assay [3], less than 100 nM; in assay [4] it was less than 100 nM.
Consider `COC(=O)Nc1nc2cc(Oc3ccc(NC(=O)Nc4cccc(C(F)(F)F)c4)cc3)ccc2[nH]1` [Example 19, Methyl N-(5-(4-((3-(trifluoromethyl)phenyl)aminocarbonylamino)phenoxy)-1H-benzimidazol-2-yl)carbamate], for which the IC50 in assay [1], in assay [3] and in assay [4] was less than 100 nM throughout. Moreover, the VEGF-C entry in assay [2] was “−”.
Turning to `COC(=O)Nc1nc2cc(S(=O)(=O)c3ccc(NC(=O)Nc4cc(C(F)(F)F)ccc4F)cc3)ccc2[nH]1` [Example 12, Methyl N-(5-(4-((2-fluoro-5-(trifluoromethyl)phenyl)aminocarbonylamino)phenylsulfonyl)-1H-benzimidazol-2-yl)carbamate], the IC50 in assay [1] is less than 100 nM; in assay [3], 1000 to 10000 nM; in assay [4], 100 to 1000 nM. Moreover, the VEGF-C entry in assay [2] was “−”.
In the case of `O=C1CCn2c(nc3ccc(Oc4ccc(NC(=O)Nc5cc(C(F)(F)F)ccc5F)cc4)nc32)N1` [Example 77], the IC50 in assay [1] is less than 100 nM; in assay [2] it was 100 to 1000 nM; in assay [3], less than 100 nM; in assay [4] it was less than 100 nM.
With `COC(=O)Nc1nc2cc(Oc3ccc(NC(=O)Nc4cccc(Cl)c4)cc3)ccc2[nH]1` [Example 1, Methyl N-(5-(4-((3-chlorophenyl)aminocarbonylamino)phenoxy)-1H-benzimidazol-2-yl)carbamate], the figures for the IC50 in assay [1], in assay [3] and in assay [4] were 100 to 1000 nM, less than 100 nM and less than 100 nM, respectively. The VEGF-C result in assay [2] is “−”.
For the molecule `COC(=O)Nc1nc2cc(Oc3ccc(NC(=O)Nc4cc(C(F)(F)F)ccc4Cl)cn3)ccc2[nH]1` [Example 111, Methyl-N-(5-(5-((2-chloro-5-(trifluoromethyl)phenyl)aminocarbonylamino)-2-pyridyloxy)-1H-benzimidazol-2-yl)carbamate], the 50% inhibitory concentration (IC50) in assay [1], in assay [3] and in assay [4] was less than 100 nM throughout. For the same molecule, in assay [2], the VEGF-C result was “−”.
Consider `CC(C)CCC(=O)Nc1nc2cc(Oc3ccc(NC(=O)Nc4cc(C(F)(F)F)ccc4F)cc3)ccc2[nH]1` [Example 28, N-(5-(4-((2-Fluoro-5-(trifluoromethyl)phenyl)aminocarbonylamino)phenoxy)-1H-benzimidazol-2-yl)-4-methylpentamide], for which the IC50 is less than 100 nM in assay [1], 100 to 1000 nM in assay [2], less than 100 nM in assay [3] and less than 100 nM in assay [4].
As for `COC(=O)Nc1nc2cc(Oc3ccc(NC(=O)Nc4cccc(C(F)(F)F)c4)cn3)ccc2[nH]1` [Example 38], the IC50 in assay [1], in assay [3] and in assay [4] was less than 100 nM each time. Further, in assay [2], the VEGF-C entry is on record as “−”.

Source of the values: US7238813B2, “Chemical compounds” (Smithkline Beecham Corporation, priority 2000, dated 2007).
